From article PMC5337940, “Sansanmycin natural product analogues as potent and selective anti-mycobacterials that inhibit lipid I biosynthesis” (Nature Communications, 2017)
Values after ≈ are worked out from the molar mass of the structure shown. Read-outs that look alike come from different tables or passages of the source.

Key:
[1] = system: Mtb H37Rv; assay: Resazurin reduction microplate assay, growth inhibition of Mtb H37Rv; assay type: cell-based, Mycobacterium tuberculosis
[2] = molecular target: Mtb MurX (Mycobacterium tuberculosis, UniProt P9WMW7); assay: Radiochemical (TLC) MurX-MurG coupled inhibition assay in Mtb mc2 6230 membranes; assay type: biochemical; conditions: 200 nM inhibitor, decrease in lipid II formation
Mtb MurX, sequence (P9WMW7 whole entry): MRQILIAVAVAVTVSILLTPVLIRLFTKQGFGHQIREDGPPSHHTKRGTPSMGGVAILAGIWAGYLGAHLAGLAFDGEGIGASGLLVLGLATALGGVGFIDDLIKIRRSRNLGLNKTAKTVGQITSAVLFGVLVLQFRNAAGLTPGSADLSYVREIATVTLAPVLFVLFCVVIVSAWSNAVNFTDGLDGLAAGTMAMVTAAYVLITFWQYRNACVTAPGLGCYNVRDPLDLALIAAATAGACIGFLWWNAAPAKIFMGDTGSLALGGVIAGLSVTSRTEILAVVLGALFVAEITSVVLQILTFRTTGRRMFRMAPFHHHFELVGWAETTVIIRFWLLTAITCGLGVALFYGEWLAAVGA

[3] = system: HEK293 cells; assay: Cytotoxicity counter-screen, resazurin reduction microplate assay; assay type: cell-based; conditions: Homo sapiens, tested up to 200 μM, read-out: MIC50 (HEK293)
[4] = Mycobacterium tuberculosis, H37RV, average of two independent experiments, each in triplicate, read-out: MIC50 Mtb H37Rv
[5] = average of two independent experiments, each in triplicate
[6] = Mycobacterium tuberculosis, H37RV, read-out: MIC50 Mtb H37Rv

NNC(=O)c1ccncc1 [INH, isoniazid, reference compound]
MIC50 [1, 4]: 0.025 ± 0.005 µM (≈ 0.00343 µg/mL)

CCCCC[C@H](NC(=O)N[C@@H](Cc1c[nH]c2ccccc12)C(=O)O)C(=O)N[C@H](C(=O)NC[C@H]1C[C@@H](O)[C@H](n2ccc(=O)[nH]c2=O)O1)[C@H](C)N(C)C(=O)CN [Compound 23]
inhibition at 0.2 µM [2]: 59%
MIC50 [1, 4]: 0.51 ± 0.12 µM (≈ 0.385 µg/mL)
CC50 [3]: > 200 µM

C[C@H](O)[C@H](NC(=O)N[C@@H](Cc1c[nH]c2ccccc12)C(=O)O)C(=O)N[C@H](C(=O)NC[C@H]1C[C@@H](O)[C@H](n2ccc(=O)[nH]c2=O)O1)[C@H](C)N(C)C(=O)CN [Compound 26]
inhibition at 0.2 µM [2]: 40%
MIC50 [1, 4]: 2.8 µM (≈ 2.04 µg/mL)
MIC50 Mtb H37Rv [1, 5]: 2.80 ± 0.70 µM (≈ 2.04 µg/mL)
CC50 [3]: > 200 µM

CC(C)C[C@H](NC(=O)N[C@@H](Cc1c[nH]c2ccccc12)C(=O)O)C(=O)N[C@H](C(=O)NC[C@H]1C[C@@H](O)[C@H](n2ccc(=O)[nH]c2=O)O1)[C@H](C)N(C)C(=O)[C@@H](N)Cc1cccnc1 [Compound 8]
inhibition at 0.2 µM [2]: 5%
MIC50 [1, 4]: 5.85 ± 2.33 µM (≈ 4.87 µg/mL)
CC50 [3]: > 200 µM

CC(C)C[C@H](NC(=O)N[C@@H](Cc1c[nH]c2ccccc12)C(=O)O)C(=O)N[C@H](C(=O)NC[C@H]1C[C@@H](O)[C@H](n2ccc(=O)[nH]c2=O)O1)[C@H](C)N(C)C(=O)[C@@H](N)Cc1cccc(O)c1 [Compound 5, Dihydrosansanmycin B]
inhibition at 0.2 µM [2]: > 51%
MIC50 [1, 4]: 0.3 ± 0.03 µM (≈ 0.254 µg/mL)
MIC50 Mtb H37Rv [1, 5]: 0.30 ± 0.07 µM (≈ 0.254 µg/mL)
CC50 [3]: > 200 µM

C[C@@H]([C@H](NC(=O)[C@H](CC(=O)O)NC(=O)N[C@@H](Cc1c[nH]c2ccccc12)C(=O)O)C(=O)NC[C@H]1C[C@@H](O)[C@H](n2ccc(=O)[nH]c2=O)O1)N(C)C(=O)CN [Compound 27]
inhibition at 0.2 µM [2]: 34%
MIC50 [1, 6]: > 6.25 µM
CC50 [3]: > 200 µM

CC(C)C[C@H](NC(=O)N[C@@H](Cc1c[nH]c2ccccc12)C(=O)O)C(=O)N[C@H](C(=O)NC[C@H]1C[C@@H](O)[C@H](n2ccc(=O)[nH]c2=O)O1)[C@H](C)N(C)C(=O)[C@@H](N)CC1CCCCC1 [Compound 10]
inhibition at 0.2 µM [2]: 41%
MIC50 [1, 4]: 1 ± 0.3 µM (≈ 0.838 µg/mL)
MIC50 Mtb H37Rv [1, 5]: 0.95 to 1.35 µM
CC50 [3]: > 200 µM

CSCC[C@H](NC(=O)N[C@@H](Cc1c[nH]c2ccccc12)C(=O)O)C(=O)N[C@H](C(=O)NC[C@H]1C[C@@H](O)[C@H](n2ccc(=O)[nH]c2=O)O1)[C@H](C)N(C)C(=O)[C@@H](N)c1cccc(O)c1 [Compound 4, Dihydrosansanmycin A]
inhibition at 0.2 µM [2]: 68%
MIC50 [1, 4]: 0.5 ± 0.05 µM (≈ 0.426 µg/mL)
CC50 [3]: > 200 µM

C[C@@H]([C@H](NC(=O)[C@H](CCc1ccccc1)NC(=O)N[C@@H](Cc1c[nH]c2ccccc12)C(=O)O)C(=O)NC[C@H]1C[C@@H](O)[C@H](n2ccc(=O)[nH]c2=O)O1)N(C)C(=O)CN [Compound 35]
MIC50 [1, 4]: 1.08 ± 0.1 µM (≈ 0.853 µg/mL)
CC50 [3]: > 200 µM

CC(C)C[C@H](NC(=O)N[C@@H](Cc1c[nH]c2ccccc12)C(=O)O)C(=O)N[C@H](C(=O)NC[C@H]1C[C@@H](O)[C@H](n2ccc(=O)[nH]c2=O)O1)[C@H](C)N(C)C(=O)[C@@H](N)[C@@H](C)O [Compound 17]
inhibition at 0.2 µM [2]: 20%
MIC50 [1, 4]: 1.35 ± 0.07 µM (≈ 1.06 µg/mL)
MIC50 Mtb H37Rv [1, 5]: 0.95 to 1.35 µM
CC50 [3]: > 200 µM

CC(C)C[C@H](NC(=O)N[C@@H](Cc1c[nH]c2ccccc12)C(=O)O)C(=O)N[C@H](C(=O)NC[C@H]1C[C@@H](O)[C@H](n2ccc(=O)[nH]c2=O)O1)[C@H](C)N(C)C(=O)[C@H](C)N [Compound 13]
inhibition at 0.2 µM [2]: 50%
MIC50 [1, 4]: 0.6 ± 0.14 µM (≈ 0.453 µg/mL)
MIC50 ([1]; average of two independent experiments, each in triplicate, read-out: MIC50 Mtb H37Rv): 0.60 µM (≈ 0.453 µg/mL)
CC50 [3]: > 200 µM

CC(C)C[C@H](NC(=O)N[C@@H](Cc1c[nH]c2ccccc12)C(=O)O)C(=O)N[C@H](C(=O)NC[C@H]1C[C@@H](O)[C@H](n2ccc(=O)[nH]c2=O)O1)[C@H](C)N(C)C(=O)[C@@H](N)Cc1ccc2ccccc2c1 [Compound 9]
inhibition at 0.2 µM [2]: 27%
MIC50 [1, 4]: 3 ± 0.7 µM (≈ 2.65 µg/mL)
CC50 [3]: > 200 µM

C[C@@H]([C@H](NC(=O)[C@H](Cc1ccccc1)NC(=O)N[C@@H](Cc1c[nH]c2ccccc12)C(=O)O)C(=O)NC[C@H]1C[C@@H](O)[C@H](n2ccc(=O)[nH]c2=O)O1)N(C)C(=O)CN [Compound 29]
inhibition at 0.2 µM [2]: 60%
MIC50 [1, 4]: 0.26 ± 0.15 µM (≈ 0.202 µg/mL)
CC50 [3]: > 200 µM

C[C@@H]([C@H](NC(=O)[C@H](CCCCN)NC(=O)N[C@@H](Cc1c[nH]c2ccccc12)C(=O)O)C(=O)NC[C@H]1C[C@@H](O)[C@H](n2ccc(=O)[nH]c2=O)O1)N(C)C(=O)CN [Compound 28]
inhibition at 0.2 µM [2]: 47%
MIC50 ([1]; Mycobacterium tuberculosis, H37RV, Mtb H37Rv, read-out: MIC50 against Mtb): 0.7 µM (≈ 0.53 µg/mL)
MIC50 [1, 4]: 0.7 ± 0.1 µM (≈ 0.53 µg/mL)
CC50 [3]: > 200 µM

CO[C@H]1/C=C/O[C@@]2(C)Oc3c(C)c(O)c4c(O)c(c(/C=N/N5CCN(C)CC5)c(O)c4c3C2=O)NC(=O)/C(C)=C\C=C\[C@H](C)[C@H](O)[C@@H](C)[C@@H](O)[C@@H](C)[C@H](OC(C)=O)[C@@H]1C [RIF, Rifampicin, reference compound]
MIC50 [1, 4]: 0.006 ± 0.002 µM (≈ 0.00494 µg/mL)

CC(C)C[C@H](NC(=O)N[C@@H](Cc1c[nH]c2ccccc12)C(=O)O)C(=O)N[C@H](C(=O)NC[C@H]1C[C@@H](O)[C@H](n2ccc(=O)[nH]c2=O)O1)[C@H](C)N(C)C(=O)[C@@H](N)CC(=O)O [Compound 14]
inhibition at 0.2 µM [2]: 8%
MIC50 [1, 6]: 9.8 ± 1.1 µM (≈ 7.84 µg/mL)
CC50 [3]: > 200 µM

C[C@@H]([C@H](NC(=O)[C@H](CC[S+](C)[O-])NC(=O)N[C@@H](Cc1c[nH]c2ccccc12)C(=O)O)C(=O)NC[C@H]1C[C@@H](O)[C@H](n2ccc(=O)[nH]c2=O)O1)N(C)C(=O)[C@@H](N)Cc1cccc(O)c1 (some centres unmarked) [Compound 6, Dihydrosansanmycin C]
inhibition at 0.2 µM [2]: 68%
MIC50 [1, 4]: 18.5 ± 0.7 µM (≈ 16.3 µg/mL)
CC50 [3]: > 200 µM

CC(C)C[C@H](NC(=O)N[C@@H](Cc1c[nH]c2ccccc12)C(=O)O)C(=O)N[C@H](C(=O)NC[C@H]1C[C@@H](O)[C@H](n2ccc(=O)[nH]c2=O)O1)[C@H](C)N(C)C(=O)[C@@H](N)CCCCN [Compound 15]
inhibition at 0.2 µM [2]: 7%
MIC50 [1, 4]: 1.35 ± 0.07 µM (≈ 1.1 µg/mL)
MIC50 Mtb H37Rv [1, 5]: 0.95 to 1.35 µM
CC50 [3]: > 200 µM

C[C@@H]([C@H](NC(=O)[C@@H](NC(=O)N[C@@H](Cc1c[nH]c2ccccc12)C(=O)O)C1CCCCC1)C(=O)NC[C@H]1C[C@@H](O)[C@H](n2ccc(=O)[nH]c2=O)O1)N(C)C(=O)CN [Compound 24]
inhibition at 0.2 µM [2]: 41%
MIC50 [1, 4]: 0.51 ± 0.1 µM (≈ 0.392 µg/mL)
CC50 [3]: > 200 µM

CC(C)[C@H](NC(=O)N[C@@H](Cc1c[nH]c2ccccc12)C(=O)O)C(=O)N[C@H](C(=O)NC[C@H]1C[C@@H](O)[C@H](n2ccc(=O)[nH]c2=O)O1)[C@H](C)N(C)C(=O)CN [Compound 22]
inhibition at 0.2 µM [2]: 26%
MIC50 [1, 4]: 0.88 ± 0.12 µM (≈ 0.64 µg/mL)
CC50 [3]: > 200 µM

C[C@@H]([C@H](NC(=O)[C@H](Cc1c[nH]c2ccccc12)NC(=O)N[C@@H](Cc1c[nH]c2ccccc12)C(=O)O)C(=O)NC[C@H]1C[C@@H](O)[C@H](n2ccc(=O)[nH]c2=O)O1)N(C)C(=O)CN [Compound 33]
inhibition at 0.2 µM [2]: 52%
MIC50 [1, 4]: 0.44 to 0.98 µM (≈ 0.359 to 0.799 µg/mL)
MIC50 Mtb H37Rv [1, 5]: 0.44 ± 0.06 µM (≈ 0.359 µg/mL)
CC50 [3]: > 200 µM

C[C@@H]([C@H](NC(=O)[C@@H](NC(=O)N[C@@H](Cc1c[nH]c2ccccc12)C(=O)O)c1ccccc1)C(=O)NC[C@H]1C[C@@H](O)[C@H](n2ccc(=O)[nH]c2=O)O1)N(C)C(=O)CN [Compound 34]
inhibition at 0.2 µM [2]: 51%
MIC50 [1, 4]: > 6.25 µM
CC50 [3]: > 200 µM

C[C@@H]([C@H](NC(=O)[C@H](Cc1cccnc1)NC(=O)N[C@@H](Cc1c[nH]c2ccccc12)C(=O)O)C(=O)NC[C@H]1C[C@@H](O)[C@H](n2ccc(=O)[nH]c2=O)O1)N(C)C(=O)CN [Compound 32]
inhibition at 0.2 µM [2]: 52%
CC50 [3]: > 200 µM
